# Where “and” joins values, the source holds several entries; their conditions need not be identical. Equal values may be shown once.
# Assays:
# Experiment in all cases: Cell assay (liposome/EV binding, flow cytometry)
# Assay type in all cases: cell-based
# [1] = target: T1, WT Siglec-1 CHO cells (Homo sapiens, UniProt Q9BZZ2); design: GM1 liposome binding to Siglec-1 CHO cells, flow cytometry (Fig. 1b) / Binding of liposomes with increasing ganglioside content against Siglec-1 CHO cells (Fig. 1c) / Liposome binding to Siglec-1-expressing CHO cells in the cell assay (Fig. 1f): unit not given here; conditions: for Binding of liposomes with increasing ganglioside content against Siglec-1 CHO cells (Fig. 1c) / log10(MFI AF647) of GLL relative to log10(MFI AF647) of the same GLL against UT CHO cells (Fig. 2a): replicates; for log10(MFI AF647) of GLL relative to log10(MFI AF647) of the same GLL against UT CHO cells (Fig. 2a): Sig-1 WT, 3 mol% ganglioside liposomes
# T1 construct: expressed in transfected cells
# T1 sequence (Q9BZZ2 20-1709): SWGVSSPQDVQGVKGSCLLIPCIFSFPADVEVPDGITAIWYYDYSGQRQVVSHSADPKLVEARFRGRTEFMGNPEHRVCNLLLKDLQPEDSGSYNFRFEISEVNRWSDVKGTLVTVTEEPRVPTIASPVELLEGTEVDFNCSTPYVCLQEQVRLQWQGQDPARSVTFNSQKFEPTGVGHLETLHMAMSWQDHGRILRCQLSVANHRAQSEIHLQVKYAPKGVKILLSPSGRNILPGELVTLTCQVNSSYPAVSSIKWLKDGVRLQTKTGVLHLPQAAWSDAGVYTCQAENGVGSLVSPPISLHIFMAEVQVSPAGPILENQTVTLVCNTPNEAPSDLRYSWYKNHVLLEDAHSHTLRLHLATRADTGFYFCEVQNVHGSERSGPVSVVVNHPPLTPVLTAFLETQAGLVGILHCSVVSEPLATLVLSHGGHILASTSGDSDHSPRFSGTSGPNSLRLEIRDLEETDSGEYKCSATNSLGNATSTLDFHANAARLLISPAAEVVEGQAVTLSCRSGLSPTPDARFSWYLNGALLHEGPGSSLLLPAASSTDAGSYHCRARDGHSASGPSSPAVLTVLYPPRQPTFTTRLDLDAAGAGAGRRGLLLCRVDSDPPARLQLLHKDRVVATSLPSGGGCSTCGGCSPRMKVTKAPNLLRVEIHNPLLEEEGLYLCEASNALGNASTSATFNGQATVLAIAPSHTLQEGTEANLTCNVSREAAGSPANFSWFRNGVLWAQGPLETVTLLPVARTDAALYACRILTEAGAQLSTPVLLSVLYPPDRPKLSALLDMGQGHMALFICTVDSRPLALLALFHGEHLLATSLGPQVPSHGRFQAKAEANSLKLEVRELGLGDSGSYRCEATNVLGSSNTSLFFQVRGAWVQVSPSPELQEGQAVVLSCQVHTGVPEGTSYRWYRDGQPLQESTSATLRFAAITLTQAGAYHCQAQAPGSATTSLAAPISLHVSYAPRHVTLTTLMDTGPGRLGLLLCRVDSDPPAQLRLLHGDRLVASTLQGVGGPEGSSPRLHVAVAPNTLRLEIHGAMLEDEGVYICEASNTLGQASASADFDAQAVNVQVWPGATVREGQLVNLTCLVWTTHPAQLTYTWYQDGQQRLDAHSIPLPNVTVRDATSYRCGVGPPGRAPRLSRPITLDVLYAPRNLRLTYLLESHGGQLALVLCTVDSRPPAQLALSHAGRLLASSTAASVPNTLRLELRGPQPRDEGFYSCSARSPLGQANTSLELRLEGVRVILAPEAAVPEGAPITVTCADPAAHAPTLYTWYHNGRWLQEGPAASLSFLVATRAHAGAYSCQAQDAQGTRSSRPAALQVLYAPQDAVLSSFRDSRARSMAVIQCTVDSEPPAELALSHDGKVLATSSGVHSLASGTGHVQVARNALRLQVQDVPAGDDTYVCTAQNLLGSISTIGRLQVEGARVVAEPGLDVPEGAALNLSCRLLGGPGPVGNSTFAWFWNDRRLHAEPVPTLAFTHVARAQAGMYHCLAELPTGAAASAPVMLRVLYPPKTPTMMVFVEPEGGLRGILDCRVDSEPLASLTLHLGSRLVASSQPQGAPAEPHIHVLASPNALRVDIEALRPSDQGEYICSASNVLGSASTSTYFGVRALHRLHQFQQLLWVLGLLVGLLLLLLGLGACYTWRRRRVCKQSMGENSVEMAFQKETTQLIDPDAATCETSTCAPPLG
# Experimental: (§1) Stock lipids (DSPC, Cholesterol, PEG45–DSPE) solutions were prepared by solvating the lipids in chloroform. An appropriate volume of each lipid solution was transferred to a glass test tube to reach the desired mol% of the component. The chloroform was then removed under N2 gas to yield a lipid thin film. Once dry, 100 µL of DMSO was added to the lipid-containing test tube and then the functional lipids (ganglioside, AF647–PEG45–DSPE, Siglec ligand–PEG45–DSPE, pHrodo–PEG45–DSPE, NGL) was added from their respect DMSO stock solution. The lipid mixture was then stored at −80 °C until completely frozen at which point excess DMSO was removed via lyophilization. Dry lipids were then stored at −80 °C until they were extruded. Lipid suppliers can be found in Supplementary Table 4.
# (§2) Dry lipids were then hydrated in 1 mL of PBS. The lipids were then sonicated in a bath sonicator in a cycle of 1 min on, 5 min off for a total of five cycles. Liposomes were then extruded using an Avanti mini extruder first using an 800 nm filter and then a 100 nm filter yielding liposomes that were 130 ± 35 nm (Supplementary Table 5) measured using a Malvern Panalytical Zetasizer Nano S. Liposomes were stored at 4 °C.
# (§3) 200,000 cells/well were plated into a 96-well U-bottom microplate and centrifuged at 300 × g for 5 min. The cells were then resuspended in 50 µL of 50 µM liposome/50 µg/mL (protein concentration) of EV solution in DMEM F12 5% FBS and incubated at 37 °C for 30 min. Excess liposomes were then removed via centrifuged at 300 × g for 5 min followed by washing the cells with FACS solution. The cells were then resuspended in (1:250 V/V) anti-Siglec-flow buffer (1% V/V FBS, 500 µM, EDTA Hank’s Balanced Salt Solution pH 7.4), solution and left to rest on ice for 30 min. The cells were then centrifuged again at 300 × g for 5 min and the cells were resuspended in FACS buffer solution and were then ready for analysis by flow cytometry. Information regarding antibody clone, catalog number supplier, label isotype, and dilution can be found in Supplementary Table 6. The Siglec-positive cells were gated on for liposome-binding analysis (Supplementary Fig. 1b).
# (§4) Flow cytometry measurements were collected on a 5-laser Fortessa X-20 (BD Bioscience). All the resulting data were analyzed using FlowJo (10.5.3) software (BD Biosciences).
# [2] = target: T2, Siglec-9 WT CHO cells (Homo sapiens, UniProt Q9Y336); conditions: Sig-9 WT†; † after treatment of cells with neuraminidase; 3 mol% ganglioside liposomes; replicates
# T2 construct: expressed in transfected cells
# T2 sequence (Q9Y336 18-463): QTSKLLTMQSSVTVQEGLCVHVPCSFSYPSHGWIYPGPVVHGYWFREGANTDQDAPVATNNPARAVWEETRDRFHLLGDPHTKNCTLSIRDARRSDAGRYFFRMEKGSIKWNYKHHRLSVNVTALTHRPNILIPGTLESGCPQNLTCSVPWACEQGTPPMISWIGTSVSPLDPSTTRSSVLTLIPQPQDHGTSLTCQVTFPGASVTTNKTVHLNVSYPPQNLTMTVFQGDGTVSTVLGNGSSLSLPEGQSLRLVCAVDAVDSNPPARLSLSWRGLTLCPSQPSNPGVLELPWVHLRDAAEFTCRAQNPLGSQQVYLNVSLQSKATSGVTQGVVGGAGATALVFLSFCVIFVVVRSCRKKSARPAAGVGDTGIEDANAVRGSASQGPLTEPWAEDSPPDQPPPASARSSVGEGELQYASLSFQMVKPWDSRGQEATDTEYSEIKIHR
# Experimental: as §1, §2, §3, §4
# (§5) Cells were harvested and resuspended in complete media with either Neuraminidase A or S. The cells were then placed in a 37 °C shaking incubator for 1 h. The cells were then washed with complete media and then the liposome binding assay was performed as described above.
# [3] = target: T3, Siglec-7 WT CHO cells (Homo sapiens, UniProt Q9Y286); conditions: Sig-7 WT†; † after treatment of cells with neuraminidase; 3 mol% ganglioside liposomes; replicates
# T3 construct: expressed in transfected cells
# T3 sequence (Q9Y286 19-467): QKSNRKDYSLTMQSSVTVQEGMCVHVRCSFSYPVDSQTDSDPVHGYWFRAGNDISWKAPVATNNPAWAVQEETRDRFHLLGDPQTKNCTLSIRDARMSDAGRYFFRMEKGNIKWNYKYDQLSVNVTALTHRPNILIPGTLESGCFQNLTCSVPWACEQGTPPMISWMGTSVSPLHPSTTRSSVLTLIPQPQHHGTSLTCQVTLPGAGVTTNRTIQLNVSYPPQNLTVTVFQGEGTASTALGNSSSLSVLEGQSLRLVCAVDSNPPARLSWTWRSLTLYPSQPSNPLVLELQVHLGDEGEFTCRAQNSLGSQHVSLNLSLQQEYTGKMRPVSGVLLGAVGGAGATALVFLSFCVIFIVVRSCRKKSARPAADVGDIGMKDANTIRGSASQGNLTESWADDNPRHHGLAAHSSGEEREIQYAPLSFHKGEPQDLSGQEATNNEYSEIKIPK
# Experimental: as §1, §2, §3, §4, §5
# [4] = target: T4, Siglec-5 WT CHO cells (Homo sapiens, UniProt O15389); conditions: Sig-5 WT†; † after treatment of cells with neuraminidase; 3 mol% ganglioside liposomes; replicates
# T4 construct: expressed in transfected cells
# T4 sequence (O15389 17-551): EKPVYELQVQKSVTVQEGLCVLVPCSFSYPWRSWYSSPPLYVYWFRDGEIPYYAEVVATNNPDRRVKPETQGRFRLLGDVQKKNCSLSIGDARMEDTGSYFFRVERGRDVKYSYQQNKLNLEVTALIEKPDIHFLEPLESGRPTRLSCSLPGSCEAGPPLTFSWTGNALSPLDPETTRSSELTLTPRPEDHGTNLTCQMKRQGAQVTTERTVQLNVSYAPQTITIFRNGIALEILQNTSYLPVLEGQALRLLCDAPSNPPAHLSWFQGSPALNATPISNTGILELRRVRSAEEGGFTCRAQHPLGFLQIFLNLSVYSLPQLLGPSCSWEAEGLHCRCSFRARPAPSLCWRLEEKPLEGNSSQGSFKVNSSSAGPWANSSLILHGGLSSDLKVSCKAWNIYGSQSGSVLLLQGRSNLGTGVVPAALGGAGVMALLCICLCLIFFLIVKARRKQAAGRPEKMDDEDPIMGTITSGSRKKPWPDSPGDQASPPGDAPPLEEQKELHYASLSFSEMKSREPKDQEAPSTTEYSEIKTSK
# Experimental: as §1, §2, §3, §4, §5
Substance,Binding of liposomes with increasing ganglioside content against Siglec-1 CHO cells (Fig. 1c) ([1]; 0.000187 Ligand/nm2),Binding of liposomes with increasing ganglioside content against Siglec-1 CHO cells (Fig. 1c) ([1]; 0.00933 Ligand/nm2),Binding of liposomes with increasing ganglioside content against Siglec-1 CHO cells (Fig. 1c) ([1]; 0.0187 Ligand/nm2),Binding of liposomes with increasing ganglioside content against Siglec-1 CHO cells (Fig. 1c) ([1]; 0.0933 Ligand/nm2),Binding of liposomes with increasing ganglioside content against Siglec-1 CHO cells (Fig. 1c) ([1]; 0.187 Ligand/nm2),Binding of liposomes with increasing ganglioside content against Siglec-1 CHO cells (Fig. 1c) ([1]; 0.373 Ligand/nm2),log10(MFI AF647) of GLL relative to log10(MFI AF647) of the same GLL against UT CHO cells (Fig. 2a) [1],ganglioside content threshold above which GLL binding to Siglec-1 CHO cells decreased ([1]; ganglioside titrated in GLLs),log10(MFI AF647) of GLL relative to log10(MFI AF647) of the same GLL against UT CHO cells (Fig. 2a) [2],log10(MFI AF647) of GLL relative to log10(MFI AF647) of the same GLL against UT CHO cells (Fig. 2a) [3],log10(MFI AF647) of GLL relative to log10(MFI AF647) of the same GLL against UT CHO cells (Fig. 2a) [4],Binding of liposomes with increasing ganglioside content against Siglec-1 CHO cells (Fig. 1c) ([1]; 0.056 Ligand/nm2),trend of GLL binding to Siglec-1 CHO cells with ganglioside content ([1]; ganglioside titrated in GLLs)
GD1a,-0.01,0.01,0.5 and 0.49 and 0.48 and 0.51,0.26 (2×) and 0.28 and 0.3,0.19 (3×) and 0.2,0.1 (2×) and 0.09 (2×),0.86 (2×) and 0.89 and 0.85,1–3 mol%,0.29 (2×) and 0.32,0.05 and 0.02 and 0.03,0.3 and 0.33 and 0.29,–,–
GM4,–,–,–,–,–,–,0.04 and 0.02 (2×) and -0.02,–,0.19 (2×) and 0.21,-0.07 and -0.06 and -0.04,0.08 (2×) and 0.05,–,–
GM3,–,–,0,0.04,0.13 (2×) and 0.12 and 0.14 and 0.16 (4×),0.33 and 0.36 and 0.26,0.19 and 0.16 and 0.23 and 0.17,–,-0.03 and -0.01 (2×),-0.16 and -0.14 and -0.13,-0.05 (2×) and -0.08,0.02,progressive increase in GLL binding up to 20 mol%
GQ1b,–,–,–,–,–,–,0.04 and 0.07 and 0.05 and 0.03,–,0.2 and 0.23 and 0.25,1.41 and 1.39 and 1.38,0.86 (2×) and 0.94,–,–

# From publication PMC10122656, “Siglec-6 mediates the uptake of extracellular vesicles through a noncanonical glycolipid binding pocket” (Nature Communications, 2023)
